Test results: ChEMBL document CHEMBL4392882, “Glycosidic Acids with Unusual Aglycone Units from Convolvulus arvensis” (J Nat Prod, 2019)
Activity calls are given as the source filed them.

Experiments:
Type in all cases: functional, cell-based
Bel-7402 = assay: Cytotoxicity in human Bel7402 cells assessed as reduction in cell viability up to 50 uM by MTT assay
MCF7 [1] = assay: Inhibition of cell migration of human MCF7 cells up to 50 uM by wound healing assay
MCF7 [2] = assay: Cytotoxicity in human MCF7 cells assessed as reduction in cell viability up to 50 uM by MTT assay
HeLa = assay: Cytotoxicity in human HeLa cells assessed as reduction in cell viability up to 50 uM by MTT assay
A549 = assay: Cytotoxicity in human A549 cells assessed as reduction in cell viability up to 50 uM by MTT assay

CCCCCC[C@@H](CCCCCCCCCC(=O)O)O[C@@H]1O[C@H](C)[C@H](O)[C@H](O)[C@H]1O[C@@H]1O[C@H](CO)[C@@H](O)[C@H](O[C@@H]2O[C@H](CO)[C@@H](O[C@@H]3O[C@H](CO[C@@H]4O[C@H](C)[C@H](O)[C@H](O)[C@H]4O)[C@@H](O)[C@H](O)[C@H]3O)[C@H](O)[C@H]2O)[C@H]1O[C@@H]1O[C@@H](C)[C@H](O)[C@@H](O)[C@H]1O
inactive: Activity (Bel-7402) | inhibition (MCF7 [1]) | Activity (MCF7 [2]) | Activity (HeLa) | Activity (A549)

CCCCCC[C@@H](CCCCCCCCCC(=O)O)O[C@@H]1O[C@H](C)[C@H](O)[C@H](O)[C@H]1O[C@@H]1O[C@H](CO)[C@@H](O)[C@H](O[C@@H]2O[C@H](CO[C@@H]3O[C@H](CO)[C@@H](O[C@@H]4O[C@H](CO)[C@@H](O)[C@H](O)[C@H]4O)[C@H](O)[C@H]3O)[C@@H](O)[C@H](O)[C@H]2O)[C@H]1O[C@@H]1O[C@@H](C)[C@H](O)[C@@H](O)[C@H]1O
inactive: Activity (Bel-7402) | inhibition (MCF7 [1]) | Activity (MCF7 [2]) | Activity (HeLa) | Activity (A549)

CCCCC[C@@H](CCCCCCCCCC(=O)O)O[C@@H]1O[C@H](C)[C@H](O)[C@H](O)[C@H]1O[C@@H]1O[C@H](CO)[C@@H](O)[C@H](O[C@@H]2O[C@H](CO[C@@H]3O[C@H](CO)[C@@H](O[C@@H]4O[C@H](CO)[C@@H](O)[C@H](O)[C@H]4O)[C@H](O)[C@H]3O)[C@@H](O)[C@H](O)[C@H]2O)[C@H]1O[C@@H]1O[C@@H](C)[C@H](O)[C@@H](O)[C@H]1O
inactive: Activity (Bel-7402) | inhibition (MCF7 [1]) | Activity (MCF7 [2]) | Activity (HeLa) | Activity (A549)

CCCCC[C@@H](CCCCCCCCCC(=O)O)O[C@@H]1O[C@H](C)[C@H](O)[C@H](O)[C@H]1O[C@@H]1O[C@H](CO)[C@@H](O)[C@H](O[C@@H]2O[C@H](CO)[C@@H](O[C@@H]3O[C@H](CO[C@@H]4O[C@H](C)[C@H](O)[C@H](O)[C@H]4O)[C@@H](O)[C@H](O)[C@H]3O)[C@H](O)[C@H]2O)[C@H]1O[C@@H]1O[C@@H](C)[C@H](O)[C@@H](O)[C@H]1O
inactive: Activity (Bel-7402) | inhibition (MCF7 [1]) | Activity (MCF7 [2]) | Activity (HeLa) | Activity (A549)

CCCCC[C@@H](CCCCCCCCCC(=O)O)O[C@@H]1O[C@H](C)[C@H](O)[C@H](O)[C@H]1O[C@@H]1O[C@H](CO)[C@@H](O)[C@H](O[C@@H]2O[C@H](CO[C@@H]3O[C@H](CO)[C@@H](O[C@@H]4O[C@H](CO[C@@H]5O[C@H](C)[C@H](O)[C@H](O)[C@H]5O)[C@@H](O)[C@H](O)[C@H]4O)[C@H](O)[C@H]3O)[C@@H](O)[C@H](O)[C@H]2O)[C@H]1O[C@@H]1O[C@@H](C)[C@H](O)[C@@H](O)[C@H]1O
inactive: Activity (Bel-7402) | inhibition (MCF7 [1]) | Activity (MCF7 [2]) | Activity (HeLa) | Activity (A549)

CCCCCC[C@@H](CCCCCCCCCC(=O)O)O[C@@H]1O[C@H](C)[C@H](O)[C@H](O)[C@H]1O[C@@H]1O[C@H](CO)[C@@H](O)[C@H](O[C@@H]2O[C@H](CO[C@@H]3O[C@H](CO)[C@@H](O[C@@H]4O[C@H](CO[C@@H]5O[C@H](C)[C@H](O)[C@H](O)[C@H]5O)[C@@H](O)[C@H](O)[C@H]4O)[C@H](O)[C@H]3O)[C@@H](O)[C@H](O)[C@H]2O)[C@H]1O[C@@H]1O[C@@H](C)[C@H](O)[C@@H](O)[C@H]1O
inactive: Activity (Bel-7402) | inhibition (MCF7 [1]) | Activity (MCF7 [2]) | Activity (HeLa) | Activity (A549)
